From BindingDB's records for doi:10.1016/0960-894X(95)00091-7 (1995) come the findings set out here.

Molecules are shown by their SMILES. Bounds are passed on as bounds.

A word on the EC50: it is the concentration that produces a half-maximal response. In general, Ki refers to a measure of affinity in units of concentration, obtained from inhibition or displacement. Lower therefore signals a stronger hold on the target. Usually IC50 stands for the midpoint of a concentration-inhibition curve. A low value points to higher potency.

Assay [1] is described as follows: Compound was tested for its ability inhibit forskolin-stimulated activity of adenylate cyclase coupled to human 5-HT 1D-beta receptor in CHO-K1 cells.
A short description of assay [2]: Binding affinity towards cloned human 5-hydroxytryptamine 1D receptor beta was determined.
The nature of assay [3]: Compound was tested for its affinity towards Alpha-2 adrenergic receptor.
The nature of assay [4]: Compound was tested for its ability inhibit forskolin-stimulated activity of adenylate cyclase coupled to human 5-hydroxytryptamine 1D receptor beta in CHO-K1 cells; value ranges from 2.8-6.5.
A short description of assay [5]: Compound was tested for its ability inhibit forskolin-stimulated activity of adenylate cyclase coupled to human 5-hydroxytryptamine 1D receptor beta in CHO-K1 cells; value ranges from 0.24-0.55.
Assay in assay [6]: as above
This is another data set of the same source.

Assay [7] in a line: Compound was tested for its ability inhibit forskolin-stimulated activity of adenylate cyclase coupled to human 5-HT 1D-beta receptor in CHO-K1 cells. The source holds these as a separate data set.

On to `NCCc1c[nH]c2ccc(OCC(=O)N3CCN(c4ccccc4)CC3)cc12` [2-[3-(2-Amino-ethyl)-1H-indol-5-yloxy]-1-(4-phenyl-piperazin-1-yl)-ethanone], for which, in assay [1], the EC50 stood at 0.45 nM. For the same molecule, the Ki in assay [2] turned out to be 0.6 nM.

With `Cc1ccccc1N1CCN(C(=O)COc2ccc3[nH]cc(CCN)c3c2)CC1`, in assay [3], the IC50 is greater than 10000 nM.

With `NCCc1c[nH]c2ccc(OCC(=O)N3CCN(c4cccc5ccccc45)CC3)cc12` [2-[3-(2-Amino-ethyl)-1H-indol-5-yloxy]-1-(4-naphthalen-1-yl-piperazin-1-yl)-ethanone], in assay [3], the IC50 was greater than 1000 nM. Moreover, in assay [4], the 50% effective concentration (EC50) worked out at 2.8 nM. Besides, the Ki in assay [5] was found to be 0.52 nM. `COc1cccc(N2CCN(C(=O)COc3ccc4[nH]cc(CCN)c4c3)CC2)c1` [2-[3-(2-Amino-ethyl)-1H-indol-5-yloxy]-1-[4-(3-methoxy-phenyl)-piperazin-1-yl]-ethanone] displayed a Ki in assay [2] of 0.4 nM. Moreover, the EC50 in assay [6] stood at 0.24 nM. Turning to `CCCCCCCCCOc1ccc2[nH]cc(CCN)c2c1` [2-(5-Nonyloxy-1H-indol-3-yl)-ethylamine], in assay [7], the EC50 was 68 nM.
